Tests used:
[1] = system: resveratrol biosynthesis gene (STS, ROMT); assay: Transcription expression analysis (RT-PCR) of resveratrol biosynthesis genes after activity-inducing agent treatment of grape callus liquid culture; type: cell-based, Vitis vinifera L. cv Campbell Early; conditions: FIG. 2; for expression of the two genes (STS, ROMT): grape callus in MS1D liquid medium, 24 hours after treatment, RT-PCR
Description: In order to establish a production system of resveratrol from grape callus, transcription expression analysis was performed through a liquid culture of stabilized grape callus derived in Example 1 as described above. It was performed in which they were cultured in MS1D (4.4 g of MS, 30 g of sucrose, 0.5 g of MES, 0.1 g of Miyo-inositol, 0.4 mg thiamine HCl, and 1 mg/L of 2,4-D), which is called a Murashige & Skoog (MS) medium containing 1 mg/L of 2,4-D, liquid medium at 25° C. and 90 rpm for 7 days, followed by treatment with an activity-inducing agent. After 24 hours, total RNA was isolated from the grape callus (Kim C Y et al. 2010, Physiologia plantarum 139: 259-261). cDNA was synthesized from the isolated total RNA (5 μg) using First-Strand cDNA Synthesis Kit (Fermantas, Canada) as described in the instruction. The synthesized cDNA (20 μl) was diluted 2.5 times and then subjected to RT-PCR using 2 μl as a template for genes related to resveratrol and pterostilbene biosynthesis from the grape callus. PCR amplification was carried out by denaturation at 94° C. for 2 minutes, 25 cycles of at 95° C. for 30 seconds, 50° C. for 40 seconds, and 72° C. for 1 minute, and a final extension reaction at 72° C. for 10 minutes. The grape resveratrol, pterostilbene biosynthesis gene, and grapactin RT-PCR primers used for this experiment were as follows: […]
Various activity-inducing agents were used for the treatment so as to promote the production of stilbene compound. The activity-inducing agents used herein were methyl jasmonate (MeJA), abscisic acid (ABA), salicylic acid (SA), ethephon, flagellin 22 (Flg22), methyl viologen (MV), and chitosan. The results confirmed that the expression of the two genes increased when MeJA, SA, and Flg22 were used and that the gene expression was the highest when MeJA was used (see FIG. 2).

grape callus = assay: Production of stilbene compounds in grape callus culture treated with activity-inducing agent and solubilizing agent, HPLC analysis of culture extract; type: cell-based, Vitis vinifera L. cv Campbell Early; conditions: with 100 μM MeJA, 7-day grape callus culture medium, 50 mM stevioside, FIG. 3
Description: Production of stilbene compounds was induced using the activity-inducing agent (100 μM MeJA) selected in Example 2 as described above. 20 ml of MS was inoculated with 2 g of grape callus, then cultured in a 125 ml flask for 7 days. Then, it was treated with 100 μM MeJA to obtain grape callus after 5 days. HPLC analysis was performed on the extract thereof. […] The experiment was performed to increase the production rate by solubilizing stilbene compound produced by treating with stevioside. As described above, 7-day grape callus culture was treated with 5 mM, 10 mM, 25 mM, and 50 mM stevioside at different concentrations or was treated with 100 μM MeJA and 5 mM, 10 mM, 2 5 mM, and 50 mM stevioside at different concentrations. After 5 days of culture, the samples were separated into callus and callus culture using a filter. The separated callus was filtered, followed by dehydration. The callus was frozen with liquid nitrogen and stored at −80° C. until extraction. The callus culture extract was directly extracted from the callus culture sample without storage so as to be used. […]

SMILES | gene expression compared among activity-inducing agents ([1]; compared with ABA, SA, ethephon, Flg22, MV, chitosan) | expression of the two genes (STS, ROMT) [1] | content of the stilbene compound compared to the group untreated with stevioside (grape callus)
CC/C=C\CC1C(=O)CCC1CC(=O)OC (stereo not shown) [MeJA, methyl jasmonate] | highest | increased | 
O=C(O)c1ccccc1O [SA, salicylic acid] |  | increased | 
C=C1C[C@@]23CC[C@H]4[C@@](C)(CCC[C@@]4(C)C(=O)O[C@@H]4O[C@H](CO)[C@@H](O)[C@H](O)[C@H]4O)[C@@H]2CC[C@]1(O[C@@H]1O[C@H](CO)[C@@H](O)[C@H](O)[C@H]1O[C@@H]1O[C@H](CO)[C@@H](O)[C@H](O)[C@H]1O)C3 [stevioside] |  |  | significantly increased
